Paper PMC7840908 (Communications Biology, 2021)
“And” between values parts separate entries of the source, which are not always exact repeats. Equal values may be shown once. “Also recorded” adds a separate entry of the source.

Legend:
[1] = molecular target: T1, MERS-CoV macro domain (Middle East respiratory syndrome-related coronavirus, UniProt K9N638); assay type: binding
[2] = molecular target: T1, MERS-CoV macro domain; assay type: binding; remark: listed apart in the source
[3] = molecular target: T1, MERS-CoV macro domain; assay type: binding; remark: listed apart in the source
[4] = molecular target: T1, MERS-CoV macro domain; assay type: binding; remark: listed apart in the source
[5] = molecular target: T1, MERS-CoV macro domain; assay type: biochemical
[6] = tested on: MERS-CoV; conditions: cited from earlier work

T1 sequence (K9N638 1110-1276 limits assumed): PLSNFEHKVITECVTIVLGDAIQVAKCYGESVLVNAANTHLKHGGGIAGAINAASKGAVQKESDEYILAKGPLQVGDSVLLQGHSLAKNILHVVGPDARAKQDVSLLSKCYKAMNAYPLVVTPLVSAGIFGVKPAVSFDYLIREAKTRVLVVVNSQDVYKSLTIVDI

Nc1ncnc2c1ncn2C1OC(COP(=O)(O)O)C(O)C1O (stereo not drawn) [AMP, adenosine monophosphate]
Melting temperature (Tm) of the MERS-CoV macro domain in complex, CD [1]: 44.0 °C | Melting temperature (Tm) of the MERS-CoV macro domain in complex, DSF [2]: 42.5 °C | n (stoichiometry of binding) [3]: 1.05 ± 0.38 | ΔH [3]: -2.674 ± 0.722 kcal/mol | −TΔS [3]: -2.419 ± 0.571 kcal/mol | NMR CSP, residue 12 [4]: 0.007029 and 0.005468 | NMR CSP, residue 22 [4]: 0.06732 and 0.05323 | NMR CSP, residue 23 [4]: 0.01249 and 0.01858 | NMR CSP, residue 31 [4]: 0.03059 and 0.02592 | NMR CSP, residue 55 [4]: 0.07284 and 0.04017 | NMR CSP, residue 67 [4]: 0.009649 and 0.005916 | NMR CSP, residue 70 [4]: 0.01453 and 0.01754 | NMR CSP, residue 71 [4]: 0.01269 and 0.01423 | NMR CSP, residue 78 [4]: 0.004301 and 0.003017 | NMR CSP, residue 81 [4]: 0.019 and 0.02485 | NMR CSP, residue 85 [4]: 0.01205 and 0.01581 | NMR CSP, residue 90 [4]: 0.01829 and 0.02265 | NMR CSP, residue 99 [4]: 0.0122 and 0.008579 | NMR CSP, residue 110 [4]: 0.01629 and 0.01233 | NMR CSP, residue 130 [4]: 0.0583 and 0.06532 | NMR CSP, residue 138 [4]: 0.02281 and 0.03131 | NMR CSP, residue 153 [4]: 0.05051 | NMR CSP, residue 156 [4]: 0.1498 | NMR CSP, residue 161 [4]: 0.003728 and 0.003225 | NMR chemical shift perturbation behaviour / exchange regime [4]: fast-exchange; also recorded: almost no chemical shift perturbation

Nc1ncnc2c1ncn2C1OC(COP(=O)(O)OP(=O)(O)OCC2OC(O)C(O)C2O)C(O)C1O (stereo not drawn) [ADPR, ADP-ribose]
Effect on MAR signals in the deMAR reaction [5]: the MAR signals reduced fewer | Melting temperature (Tm) of the MERS-CoV macro domain in complex, CD [1]: 48.8 °C | Melting temperature (Tm) of the MERS-CoV macro domain in complex, DSF [2]: 49.0 °C | entropy contribution [3]: −9.30 ± 17.61 J/mol K | n (stoichiometry of binding) [3]: 1.25 ± 0.08 and 1.20 ± 0.19 | NMR CSP, residue 2 [4]: 0.05411 | NMR CSP, residue 3 [4]: 0.1983 and 0.2813 | NMR CSP, residue 5 [4]: 0.069 | NMR CSP, residue 6 [4]: 0.06294 and 0.07046 | NMR CSP, residue 7 [4]: 0.1539 and 0.09995 | NMR CSP, residue 8 [4]: 0.1145 and 0.09451 | NMR CSP, residue 13 [4]: 0.06576 and 0.04291 | NMR CSP, residue 15 [4]: 0.1078 and 0.09719 | NMR CSP, residue 16 [4]: 0.1514 and 0.1186 | NMR CSP, residue 17 [4]: 0.0814 and 0.0623 | NMR CSP, residue 18 [4]: 0.08432 and 0.05219 | NMR CSP, residue 19 [4]: 0.3848 and 0.3419 | NMR CSP, residue 20 [4]: 0.8973 and 0.7322 | NMR CSP, residue 22 [4]: 0.3525 and 0.4007 | NMR CSP, residue 23 [4]: 0.383 | NMR CSP, residue 25 [4]: 0.05156 and 0.08317 | NMR CSP, residue 26 [4]: 0.1992 and 0.1277 | NMR CSP, residue 27 [4]: 0.03208 | NMR CSP, residue 28 [4]: 0.1376 and 0.09301 | NMR CSP, residue 29 [4]: 0.03731 and 0.02244 | NMR CSP, residue 31 [4]: 0.0401 and 0.04027 | NMR CSP, residue 32 [4]: 0.3295 and 0.3317 | NMR CSP, residue 40 [4]: 0.1305 | NMR CSP, residue 42 [4]: 0.3421 and 0.2454 | NMR CSP, residue 45 [4]: 0.9446 | NMR CSP, residue 46 [4]: 1.504 and 1.393 | NMR CSP, residue 48 [4]: 1.083 | NMR CSP, residue 49 [4]: 0.7736 | NMR CSP, residue 50 [4]: 0.4669 and 0.3863 | NMR CSP, residue 51 [4]: 0.1048 and 0.1583 | NMR CSP, residue 52 [4]: 0.2728 and 0.1547 | NMR CSP, residue 53 [4]: 0.1687 and 0.136 | NMR CSP, residue 54 [4]: 0.08878 and 0.08252 | NMR CSP, residue 55 [4]: 0.1049 and 0.106 | NMR CSP, residue 56 [4]: 0.1546 and 0.1346 | NMR CSP, residue 57 [4]: 0.138 and 0.07814 | NMR CSP, residue 59 [4]: 0.122 and 0.1437 | NMR CSP, residue 60 [4]: 0.1518 and 0.1952 | NMR CSP, residue 62 [4]: 0.2878 and 0.2628 | NMR CSP, residue 63 [4]: 0.1045 and 0.05935 | NMR CSP, residue 64 [4]: 0.3272 and 0.2442 | NMR CSP, residue 66 [4]: 0.09722 and 0.08557 | NMR CSP, residue 67 [4]: 0.1931 and 0.1393 | NMR CSP, residue 68 [4]: 0.02796 and 0.05038 | NMR CSP, residue 71 [4]: 0.06402 | NMR CSP, residue 73 [4]: 0.05219 | NMR CSP, residue 74 [4]: 0.2006 and 0.1195 | NMR CSP, residue 76 [4]: 0.3259 and 0.302 | NMR CSP, residue 77 [4]: 0.2091 and 0.1118 | NMR CSP, residue 78 [4]: 0.3066 and 0.2179 | NMR CSP, residue 79 [4]: 0.2231 and 0.1318 | NMR CSP, residue 81 [4]: 0.02964 and 0.02247 | NMR CSP, residue 82 [4]: 0.08035 and 0.07748 | NMR CSP, residue 88 [4]: 0.05214 and 0.02732 | NMR CSP, residue 90 [4]: 0.03514 and 0.02202 | NMR CSP, residue 91 [4]: 0.0404 and 0.05921 | NMR CSP, residue 92 [4]: 0.2456 and 0.1395 | NMR CSP, residue 93 [4]: 0.4982 and 0.3283 | NMR CSP, residue 94 [4]: 1.407 and 1.235 | NMR CSP, residue 95 [4]: 0.4425 and 0.3726 | NMR CSP, residue 97 [4]: 0.5401 and 0.4521 | NMR CSP, residue 100 [4]: 0.1106 and 0.08163 | NMR CSP, residue 105 [4]: 0.06587 | NMR CSP, residue 106 [4]: 0.1936 and 0.1903 | NMR CSP, residue 107 [4]: 0.1268 and 0.1117 | NMR CSP, residue 108 [4]: 0.06699 and 0.04787 | NMR CSP, residue 110 [4]: 0.1341 and 0.1262 | NMR CSP, residue 116 [4]: 0.02109 and 0.03031 | NMR CSP, residue 117 [4]: 0.04981 and 0.05032 | NMR CSP, residue 120 [4]: 0.07982 and 0.07783 | NMR CSP, residue 125 [4]: 0.9414 and 0.7836 | NMR CSP, residue 126 [4]: 0.4011 and 0.2956 | NMR CSP, residue 127 [4]: 0.636 and 0.5379 | NMR CSP, residue 131 [4]: 0.2256 and 0.1765 | NMR CSP, residue 132 [4]: 0.8759 | NMR CSP, residue 133 [4]: 0.6064 and 0.6446 | NMR CSP, residue 135 [4]: 0.1312 and 0.07635 | NMR CSP, residue 136 [4]: 0.08199 and 0.1121 | NMR CSP, residue 137 [4]: 0.1059 and 0.1517 | NMR CSP, residue 138 [4]: 0.1473 and 0.115 | NMR CSP, residue 139 [4]: 0.07462 and 0.1086 | NMR CSP, residue 140 [4]: 0.04879 and 0.03054 | NMR CSP, residue 141 [4]: 0.06216 and 0.08925 | NMR CSP, residue 145 [4]: 0.2809 and 0.3196 | NMR CSP, residue 148 [4]: 0.04359 and 0.06607 | NMR CSP, residue 149 [4]: 0.112 and 0.08955 | NMR CSP, residue 150 [4]: 0.04 and 0.03962 | NMR CSP, residue 152 [4]: 0.255 and 0.1438 | NMR CSP, residue 153 [4]: 0.3264 and 0.2803 | NMR CSP, residue 154 [4]: 0.8835 and 0.7254 | NMR CSP, residue 155 [4]: 0.3976 and 0.2797 | NMR CSP, residue 156 [4]: 0.2021 | NMR CSP, residue 157 [4]: 0.1187 and 0.09085 | NMR CSP, residue 158 [4]: 0.04463 and 0.03077 | NMR CSP, residue 162 [4]: 0.06097 and 0.0557 | NMR CSP, residue 163 [4]: 0.2144 and 0.1623 | NMR CSP, residue 164 [4]: 0.08089 and 0.05482

Oc1ccc(/C=C/c2cc(O)cc(O)c2)cc1 [resveratrol]
Effect on replication of MERS-CoV [6]: inhibit the replication of MERS-CoV

Nc1ncnc2c1ncn2[C@@H]1O[C@H](COP(=O)(O)OP(=O)(O)O)[C@@H](O)[C@H]1O [ADP, adenosine diphosphate]
Melting temperature (Tm) of the MERS-CoV macro domain in complex, CD [1]: 43.7 °C | Melting temperature (Tm) of the MERS-CoV macro domain in complex, DSF [2]: 44.5 °C | n (stoichiometry of binding) [3]: 1.08 ± 0.06 | ΔH [3]: -3.85 ± 1.8 kcal/mol | −TΔS [3]: -1.86 ± 1.51 kcal/mol | NMR CSP, residue 11 [4]: 0.01279 and 0.006701 | NMR CSP, residue 29 [4]: 0.01328 and 0.01691 | NMR CSP, residue 36 [4]: 0.05057 | NMR CSP, residue 37 [4]: 0.07911 | NMR CSP, residue 46 [4]: 0.3834 | NMR CSP, residue 47 [4]: 0.05654 and 0.03639 | NMR CSP, residue 48 [4]: 0.08159 and 0.1212 | NMR CSP, residue 67 [4]: 0.0178 and 0.009143 | NMR CSP, residue 75 [4]: 0.05887 and 0.06181 | NMR CSP, residue 94 [4]: 0.1393 | NMR CSP, residue 101 [4]: 0.03691 and 0.02294 | NMR CSP, residue 125 [4]: 0.08579 | NMR CSP, residue 130 [4]: 0.08457 and 0.1167 | NMR CSP, residue 132 [4]: 0.01774 and 0.01343 | NMR CSP, residue 149 [4]: 0.01454 | NMR CSP, residue 154 [4]: 0.08237 | NMR CSP, residue 156 [4]: 0.2276

NC(=O)c1ccc[n+]([C@@H]2O[C@H](COP(=O)([O-])OP(=O)(O)OC[C@H]3O[C@@H](n4cnc5c(N)ncnc54)[C@H](O)[C@@H]3O)[C@@H](O)[C@H]2O)c1 [NAD, nicotinamide adenine dinucleotide]
Effect on MAR signals in the deMAR reaction [5]: the MAR signals reduced more | Melting temperature (Tm) of the MERS-CoV macro domain in complex, CD [1]: 46.6 °C | Melting temperature (Tm) of the MERS-CoV macro domain in complex, DSF [2]: 46.5 °C | entropy contribution [3]: −22.59 ± 3.77 J/mol K | n (stoichiometry of binding) [3]: 1.04 ± 0.12 and 0.938 ± 0.13 | NMR CSP, residue 25 [4]: 0.05155 and 0.0863 | NMR CSP, residue 27 [4]: 0.02171 and 0.02658 | NMR CSP, residue 35 [4]: 0.0131 | NMR CSP, residue 36 [4]: 0.01783 | NMR CSP, residue 37 [4]: 0.07975 | NMR CSP, residue 38 [4]: 0.01444 | NMR CSP, residue 45 [4]: 0.2497 | NMR CSP, residue 47 [4]: 0.006205 | NMR CSP, residue 48 [4]: 0.04145 | NMR CSP, residue 49 [4]: 0.01049 | NMR CSP, residue 79 [4]: 0.07732 and 0.1287 | NMR CSP, residue 104 [4]: 0.01357 and 0.02257 | NMR CSP, residue 115 [4]: 0.005468 and 0.008456 | NMR CSP, residue 124 [4]: 0.0754 and 0.108 | NMR CSP, residue 128 [4]: 0.1673 | NMR CSP, residue 129 [4]: 0.02609 | NMR CSP, residue 130 [4]: 0.008538 | NMR CSP, residue 132 [4]: 0.01478 | NMR CSP, residue 140 [4]: 0.01724 and 0.02911 | NMR CSP, residue 143 [4]: 0.0201 and 0.02422 | NMR CSP, residue 156 [4]: 0.0383 | NMR chemical shift perturbation behaviour / exchange regime [4]: only a few residues presented CSPs; also recorded: slow-exchange
